According to PMC8815882, “Screening the pandemic response box identified benzimidazole carbamates, Olorofim and ravuconazole as promising drug candidates for the treatment of eumycetoma” (PLoS Neglected Tropical Diseases, 2022):
Like-named read-outs stand apart in the source and are kept apart here.

Test system: M. mycetomatis genome strain MM55
Assay: CLSI M38-A2 based in vitro susceptibility screening (XTT or resazurin), growth at fixed concentration
Format: cell-based, Madurella mycetomatis
Conditions: Madurella mycetomatis; for Percent fungal survival at 100 µM: read-out: Percentage survival at 100um, 100 uM A (second replicate column)
[1] = 25 uM, mean, read-out: Percentage survival at 25um, 25 uM mean
[2] = 25 uM, replicate A, read-out: Percentage survival at 25um, 25 um A
[3] = 25 uM, replicate B, read-out: Percentage survival at 25um, 25 uM B
[4] = 25 uM, replicate C, read-out: Percentage survival at 25um, 25 uM C
[5] = mean, read-out: Percentage survival at 100um, 100 uM mean
[6] = replicate (first column), read-out: Percentage survival at 100um, 100 uM A
[7] = replicate (second column), read-out: Percentage survival at 100um, 100 uM A
[8] = replicate (third column), read-out: Percentage survival at 100um, 100 uM A
[9] = 25 uM, replicate A, MM55, read-out: Percentage survival at 25um, 25 um A
[10] = mean of replicates, MM55, read-out: Percentage survival at 100um, 100 uM mean
[11] = replicate 1, MM55, read-out: Percentage survival at 100um, 100 uM A
[12] = replicate 2, MM55, read-out: Percentage survival at 100um, 100 uM A
[13] = replicate 3, MM55, read-out: Percentage survival at 100um, 100 uM A
[14] = 25 uM, mean of three replicates, read-out: Percentage survival at 25um, 25 uM mean
[15] = first replicate column, read-out: Percentage survival at 100um, 100 uM A
[16] = mean of three replicates, read-out: Percentage survival at 100um, 100 uM mean
[17] = second replicate column, read-out: Percentage survival at 100um, 100 uM A
[18] = third replicate column, read-out: Percentage survival at 100um, 100 uM A
[19] = 25 uM, mean of three, M. mycetomatis MM55, read-out: Percentage survival at 25um, 25 uM mean
[20] = 25 uM, replicate A, M. mycetomatis MM55, read-out: Percentage survival at 25um, 25 um A
[21] = 25 uM, replicate B, M. mycetomatis MM55, read-out: Percentage survival at 25um, 25 uM B
[22] = 25 uM, replicate C, M. mycetomatis MM55, read-out: Percentage survival at 25um, 25 uM C
[23] = mean of three, M. mycetomatis MM55, read-out: Percentage survival at 100um, 100 uM mean
[24] = replicate 1, M. mycetomatis MM55, read-out: Percentage survival at 100um, 100 uM A (first replicate column)
[25] = replicate 2, M. mycetomatis MM55
[26] = replicate 3, M. mycetomatis MM55, read-out: Percentage survival at 100um, 100 uM A (third replicate column)

Nc1nc(O)ncc1F [MMV004508]
activity at 25 µM [1]: 84% | activity at 25 µM [2]: 87.6% | activity at 25 µM [3]: 87.9% | activity at 25 µM [4]: 76.6% | activity at 100 µM [5]: 89.4% | activity at 100 µM [6]: 93.5% | activity at 100 µM [7]: 81.4% | activity at 100 µM [8]: 93.4%

CC(C)c1ccc(COc2cccc(-c3cc([S+](C)[O-])c(C#N)c(=O)[nH]3)c2)cc1 (centres unmarked) [MMV1582497]
activity at 25 µM [1]: 61.3% | activity at 25 µM [2]: 65% | activity at 25 µM [3]: 60.9% | activity at 25 µM [4]: 58.1% | activity at 100 µM [5]: 40.1% | activity at 100 µM [6]: 1.56% | activity at 100 µM [7]: 53.5% | activity at 100 µM [8]: 65.4%

COc1ccc(OCc2ccc(COc3c(Cl)cccc3Cl)cc2)c(Cl)c1 [MMV1580485]
activity at 25 µM (25 uM, mean of replicates, MM55, read-out: Percentage survival at 25um, 25 uM mean): 89.3% | activity at 25 µM [9]: 92.6% | activity at 25 µM (25 uM, replicate B, MM55, read-out: Percentage survival at 25um, 25 uM B): 89.4% | activity at 25 µM (25 uM, replicate C, MM55, read-out: Percentage survival at 25um, 25 uM C): 85.7% | activity at 100 µM [10]: 77.9% | activity at 100 µM [11]: 89.9% | activity at 100 µM [12]: 70.7% | activity at 100 µM [13]: 73.2%

CC[C@@]1(O)C(=O)OCc2c1cc1n(c2=O)Cc2cc3c([N+](=O)[O-])cccc3nc2-1 [MMV1580796]
activity at 25 µM [9]: 95.3% | activity at 100 µM [10]: 86.8% | activity at 100 µM [11]: 97.1% | activity at 100 µM [12]: 84.7% | activity at 100 µM [13]: 78.6% | activity at 25 µM (read-out: Percentage survival at 25um, 25 uM B): 102% | activity at 25 µM (read-out: Percentage survival at 25um, 25 uM C): 81.7% | activity at 25 µM (read-out: Percentage survival at 25um, 25 uM mean): 93.1%

CCc1ccccc1OCCN1CCCCCC1 [MMV1633962]
activity at 25 µM [14]: 60.1% | activity at 25 µM [2]: 47.9% | activity at 25 µM [3]: 69.8% | activity at 25 µM [4]: 62.5% | activity at 100 µM [15]: 61.1% | activity at 100 µM [16]: 61.5% | activity at 100 µM [17]: 62.7% | activity at 100 µM [18]: 60.6%

C[C@@H]1O[C@@H]1P(=O)(O)O [MMV002354]
activity at 25 µM (25 uM, mean of replicates, read-out: Percentage survival at 25um, 25 uM mean): 88.5% | activity at 25 µM [2]: 88.5% | activity at 25 µM [3]: 86.5% | activity at 25 µM [4]: 90.5% | activity at 100 µM (mean of replicates, read-out: Percentage survival at 100um, 100 uM mean): 88.2% | activity at 100 µM (replicate 1, read-out: Percentage survival at 100um, 100 uM A): 81.5% | activity at 100 µM (replicate 2, read-out: Percentage survival at 100um, 100 uM A): 93.4% | activity at 100 µM (replicate 3, read-out: Percentage survival at 100um, 100 uM A): 89.6%

CCCCCCCc1[nH]c2ccccc2c(=O)c1O [MMV1578561]
activity at 25 µM [19]: 76.2% | activity at 25 µM [20]: 76.9% | activity at 25 µM [21]: 79.7% | activity at 25 µM [22]: 71.9% | activity at 100 µM [23]: 72.1% | activity at 100 µM [24]: 73.7% | Percent fungal survival at 100 µM [25]: 69.3% | activity at 100 µM [26]: 73.2%

CC(C)(C)NC(=O)[C@@H]1C[C@@H]2CCCC[C@@H]2CN1C[C@@H](O)[C@H](Cc1ccccc1)NC(=O)[C@H](CC(N)=O)NC(=O)c1ccc2ccccc2n1 [MMV637879]
activity at 25 µM [14]: 92.5% | activity at 25 µM [2]: 98.2% | activity at 25 µM [3]: 97.6% | activity at 25 µM [4]: 81.5% | activity at 100 µM [15]: 102% | activity at 100 µM [16]: 93.3% | activity at 100 µM [17]: 95.3% | activity at 100 µM [18]: 82.8%

O=C(Nc1ccccc1)N(Cc1cc(Br)ccc1O)c1ccc(F)cc1 [MMV1581552]
activity at 25 µM [19]: 51.3% | activity at 25 µM [20]: 32.5% | activity at 25 µM [21]: 58.2% | activity at 25 µM [22]: 63.3% | activity at 100 µM [23]: 11.5% | activity at 100 µM [24]: 1.56% | Percent fungal survival at 100 µM [25]: 8.53% | activity at 100 µM [26]: 24.3%

CCNC(=O)Nc1cn2c(-c3ncc(CC)cn3)cc(-c3cccnc3)cc2n1 [MMV1782403]
activity at 25 µM [14]: 109% | activity at 25 µM [2]: 109% | activity at 25 µM [3]: 132% | activity at 25 µM [4]: 85.2% | activity at 100 µM [16]: 84.3% | activity at 100 µM (replicate 1, read-out: Percentage survival at 100um, 100 uM A (first replicate column)): 77.2% | Percent fungal survival at 100 µM (replicate 2): 79.4% | activity at 100 µM (replicate 3, read-out: Percentage survival at 100um, 100 uM A (third replicate column)): 96.3%
